Assay results: patent US6451736B1, “Substituted aromatic thiocarboxylic acid amides and their use as herbicides” (Bayer Aktiengesellschaft, priority 1994, dated 2002)

Columns and labels:
Format in all cases: in vivo
Abuthilon [1] = test: Pre-emergence test/greenhouse; conditions: Table B, after three weeks
Protocol: (§1) To produce a suitable preparation of active compound, 1 part by weight of active compound is mixed with the stated amount of solvent, the stated amount of emulsifier is added and the concentrate is diluted with water to the desired concentration.
(§2) Seeds of the test plants are sown in normal soil and, after 24 hours, watered with the preparation of active compound. It is expedient to keep constant the amount of water per unit area. The concentration of the active compound in the preparation is of no importance, only the amount of active compound applied per unit area being decisive. After three weeks, the degree of damage to the plants is rated in % damage in comparison to the development of the untreated control. The figures denote:
(§3) 0%=no action (like untreated control)

Amaranthus [2] = test: Pre-emergence test/greenhouse; conditions: after three weeks
Protocol: as §1, §2, §3

Barley = test: Pre-emergence test/greenhouse; conditions: Table A, 125 g/ha, after three weeks
Protocol: as §1, §2, §3

Chenopodium [3] = test: Pre-emergence test/greenhouse; conditions: after three weeks
Protocol: as §1, §2, §3

Maize [4] = test: Pre-emergence test/greenhouse; conditions: after three weeks
Protocol: as §1, §2, §3

Matricaria = test: Pre-emergence test/greenhouse; conditions: after three weeks
Protocol: as §1, §2, §3

Portulaca = test: Pre-emergence test/greenhouse; conditions: after three weeks
Protocol: as §1, §2, §3

Solanum [5] = test: Pre-emergence test/greenhouse; conditions: after three weeks
Protocol: as §1, §2, §3

Wheat [6] = test: Pre-emergence test/greenhouse; conditions: Table B, after three weeks
Protocol: as §1, §2, §3

Abuthilon [7] = test: Post-emergence test/greenhouse; conditions: Table C, after three weeks
Protocol: as §1
(§4) Test plants which have a height of 5-15 cm are sprayed with the preparation of active compound in such a way as to apply the particular amounts of active compound desired per unit area. After three weeks, the degree of damage to the plants is rated in % damage in comparison to the development of the untreated control.
(§5) 0%=no action (like intreated control)

Amaranthus [8] = test: Post-emergence test/greenhouse; conditions: Table C, after three weeks
Protocol: as §1, §4, §5

Chenopodium [9] = test: Post-emergence test/greenhouse; conditions: Table C, after three weeks
Protocol: as §1, §4, §5

Maize [10] = test: Post-emergence test/greenhouse; conditions: Table C, after three weeks
Protocol: as §1, §4, §5

Solanum [11] = test: Post-emergence test/greenhouse; conditions: Table C, after three weeks
Protocol: as §1, §4, §5

Veronica = test: Post-emergence test/greenhouse; conditions: Table C, after three weeks
Protocol: as §1, §4, §5

Wheat [12] = test: Post-emergence test/greenhouse; conditions: Table C, after three weeks
Protocol: as §1, §4, §5

SMILES	degree of damage, Abuthilon (Abuthilon [1]; 60 g/ha) [%]	degree of damage, Amaranthus (Amaranthus [2]; Table A, 125 g/ha) [%]	degree of damage, Amaranthus (Amaranthus [2]; Table B, 60 g/ha) [%]	degree of damage, Barley (Barley) [%]	degree of damage, Chenopodium (Chenopodium [3]; Table A, 125 g/ha) [%]	degree of damage, Chenopodium (Chenopodium [3]; Table B, 60 g/ha) [%]	degree of damage, Maize (Maize [4]; Table A, 125 g/ha) [%]	degree of damage, Maize (Maize [4]; Table B, 60 g/ha) [%]	degree of damage, Matricaria (Matricaria; Table A, 125 g/ha) [%]	degree of damage, Matricaria (Matricaria; Table B, 60 g/ha) [%]	degree of damage, Portulaca (Portulaca; Table A, 125 g/ha) [%]	degree of damage, Portulaca (Portulaca; Table B, 60 g/ha) [%]	degree of damage, Solanum (Solanum [5]; Table A, 125 g/ha) [%]	degree of damage, Solanum (Solanum [5]; Table B, 60 g/ha) [%]	degree of damage, Wheat (Wheat [6]; 60 g/ha) [%]	degree of damage, Abuthilon (Abuthilon [7]; 8 g/ha) [%]	degree of damage, Amaranthus (Amaranthus [8]; 8 g/ha) [%]	degree of damage, Chenopodium (Chenopodium [9]; 8 g/ha) [%]	degree of damage, Maize (Maize [10]; 8 g/ha) [%]	degree of damage, Solanum (Solanum [11]; 8 g/ha) [%]	other results
CCS(=O)(=O)Nc1cc(-n2nc(C(F)F)n(C)c2=S)c(F)cc1C(N)=S [Example 3, 2-(2-fluoro-4-thiocarbamoyl-5-ethylsulphonylaminophenyl)-4-methyl-5-difluoromethyl-2,4-dihydro-3H-1,2,4-triazole-3-thione]	100	100	100	0	100	100	0	0	100	100	100	100	100	100	0	–	–	–	–	–	degree of damage, Abuthilon (Abuthilon [7]; 30 g/ha): 100%; degree of damage, Amaranthus (Amaranthus [8]; 30 g/ha): 100%; degree of damage, Chenopodium (Chenopodium [9]; 30 g/ha): 100%; degree of damage, Maize (Maize [10]; 30 g/ha): 30%; degree of damage, Solanum (Solanum [11]; 30 g/ha): 100%; degree of damage, Veronica (Veronica; 30 g/ha): 100%; degree of damage, Wheat (Wheat [12]; 30 g/ha): 10%
CCn1c(C(F)(F)F)nn(-c2cc(NS(=O)(=O)CC)c(C(N)=S)cc2F)c1=O [Example 5]	–	100	–	0	100	–	0	–	90	–	90	–	100	–	–	–	–	–	–	–	degree of damage, Abuthilon (Abuthilon [1]; 125 g/ha): 10%; degree of damage, Amaranthus (Amaranthus [2]; Table B, 125 g/ha): 100%; degree of damage, Chenopodium (Chenopodium [3]; Table B, 125 g/ha): 100%; degree of damage, Maize (Maize [4]; Table B, 125 g/ha): 0%; degree of damage, Matricaria (Matricaria; Table B, 125 g/ha): 70%; degree of damage, Portulaca (Portulaca; Table B, 125 g/ha): 90%; degree of damage, Solanum (Solanum [5]; Table B, 125 g/ha): 100%; degree of damage, Wheat (Wheat [6]; 125 g/ha): 0%; degree of damage, Abuthilon (Abuthilon [7]; 15 g/ha): 100%; degree of damage, Amaranthus (Amaranthus [8]; 15 g/ha): 100%; degree of damage, Chenopodium (Chenopodium [9]; 15 g/ha): 100%; degree of damage, Maize (Maize [10]; 15 g/ha): 20%; degree of damage, Solanum (Solanum [11]; 15 g/ha): 100%; degree of damage, Veronica (Veronica; 15 g/ha): 100%; degree of damage, Wheat (Wheat [12]; 15 g/ha): 10%
C#CC(C)Oc1cc(-n2nc(C(F)F)n(C)c2=S)c(F)cc1C(N)=S (stereo not shown) [Example 6]	100	100	100	0	100	100	30	30	95	100	100	100	100	95	20	100	100	100	50	100	degree of damage, Veronica (Veronica; 8 g/ha): 95%; degree of damage, Wheat (Wheat [12]; 8 g/ha): 30%
CCN(CC)CC.CCS(=O)(=O)Nc1cc(-n2nc(C)n(NC)c2=O)c(F)cc1C(N)=S [Example 7]	–	100	–	30	100	–	0	–	95	–	100	–	95	–	–	–	–	–	–	–	degree of damage, Abuthilon (Abuthilon [1]; 125 g/ha): 95%; degree of damage, Amaranthus (Amaranthus [2]; Table B, 125 g/ha): 100%; degree of damage, Chenopodium (Chenopodium [3]; Table B, 125 g/ha): 100%; degree of damage, Maize (Maize [4]; Table B, 125 g/ha): 0%; degree of damage, Matricaria (Matricaria; Table B, 125 g/ha): 95%; degree of damage, Portulaca (Portulaca; Table B, 125 g/ha): 100%; degree of damage, Solanum (Solanum [5]; Table B, 125 g/ha): 95%; degree of damage, Wheat (Wheat [6]; 125 g/ha): 50%; degree of damage, Abuthilon (Abuthilon [7]; 60 g/ha): 100%; degree of damage, Amaranthus (Amaranthus [8]; 60 g/ha): 100%; degree of damage, Chenopodium (Chenopodium [9]; 60 g/ha): 95%; degree of damage, Maize (Maize [10]; 60 g/ha): 50%; degree of damage, Solanum (Solanum [11]; 60 g/ha): 100%; degree of damage, Veronica (Veronica; 60 g/ha): 95%; degree of damage, Wheat (Wheat [12]; 60 g/ha): 10%
CCS(=O)(=O)Nc1cc(-n2nc(C(F)(F)F)n(C)c2=S)c(F)cc1C(N)=S [Example 31]	100	–	100	–	–	100	–	0	–	100	–	100	–	100	0	100	100	90	70	100	degree of damage, Veronica (Veronica; 8 g/ha): 100%; degree of damage, Wheat (Wheat [12]; 8 g/ha): 0%
Cn1c(C(F)(F)F)nn(-c2cc(NS(C)(=O)=O)c(C(N)=S)cc2F)c1=S [Example 34]	100	–	100	–	–	100	–	0	–	100	–	100	–	100	0	–	–	–	–	–	degree of damage, Abuthilon (Abuthilon [7]; 15 g/ha): 100%; degree of damage, Amaranthus (Amaranthus [8]; 15 g/ha): 100%; degree of damage, Chenopodium (Chenopodium [9]; 15 g/ha): 100%; degree of damage, Maize (Maize [10]; 15 g/ha): 30%; degree of damage, Solanum (Solanum [11]; 15 g/ha): 100%; degree of damage, Veronica (Veronica; 15 g/ha): 100%; degree of damage, Wheat (Wheat [12]; 15 g/ha): 0%
CC(C)Oc1cc(N2C(=O)C3CCCCN3C2=O)c(F)cc1C(N)=S (stereo not shown) [Example 46]	100	–	100	–	–	100	–	70	–	100	–	100	–	100	0	100	100	95	20	100	degree of damage, Veronica (Veronica; 8 g/ha): 100%; degree of damage, Wheat (Wheat [12]; 8 g/ha): 15%
CCOc1cc(N2C(=O)C3CCCCN3C2=O)c(F)cc1C(N)=S (stereo not shown) [Example 47]	–	–	–	–	–	–	–	–	–	–	–	–	–	–	–	100	100	95	10	100	degree of damage, Abuthilon (Abuthilon [1]; 30 g/ha): 100%; degree of damage, Amaranthus (Amaranthus [2]; Table B, 30 g/ha): 95%; degree of damage, Chenopodium (Chenopodium [3]; Table B, 30 g/ha): 100%; degree of damage, Maize (Maize [4]; Table B, 30 g/ha): 0%; degree of damage, Matricaria (Matricaria; Table B, 30 g/ha): 100%; degree of damage, Portulaca (Portulaca; Table B, 30 g/ha): 100%; degree of damage, Solanum (Solanum [5]; Table B, 30 g/ha): 100%; degree of damage, Wheat (Wheat [6]; 30 g/ha): 0%; degree of damage, Veronica (Veronica; 8 g/ha): 100%; degree of damage, Wheat (Wheat [12]; 8 g/ha): 10%
